Measured values published in patent US20160331721A1, “COMPOSITION FOR ALLEVIATING AND PREVENTING ALZHEIMER'S DISEASE” (Sunway Biotech Co., LTD, priority 2015, published 2016).

How the values were obtained:
[1] = test system: Aβ-induced AD (Alzheimer's disease) rats; experiment: Working memory test in water maze (Day 27); assay type: in vivo, SD rats; conditions: FIG. 10, compared to Aβ group
From the text: (§1) Therefore, above descriptions have completely introduce the fabricating way for this Alzheimer's disease alleviating and preventing composition. Next, a variety of experimental data will be presented in following paragraphs for proving the practicability of the Alzheimer's disease alleviating and preventing composition. Please refer to FIG. 4, which shoes an experiment grouping table.
(§2) Please continuously refer to FIG. 5, where a daily schedule diagram for the animal experiments are provided.

[2] = test system: Aβ-induced AD (Alzheimer's disease) rats; experiment: Spatial probe test in water maze (Day 26); assay type: in vivo, SD rats
From the text: as §1, §2
Next, spatial probe test is completed on Day 26. During the spatial probe test, the rest platform is removed out of the water tank. To carry out the spatial probe test, the test rat is put on the starting point 1 located in quadrant I; and then, letting the rat swim in the water tank for 90 seconds so as to record the rat's swimming route as well as the time for staying in quadrant IV. Please refer to FIG. 8, which provides swimming route records of the test rats as working the spatial navigation test.

Q: Which results are given for COc1cc2c(cc1OC)C(=O)C(CC1CCN(Cc3ccccc3)CC1)C2 (stereo not drawn) [Donepezil]?
A: escape latency, working memory test [1]: the Aβ group spend more time to find the target quadrant; swimming route in spatial probe test ([2]; FIG. 8, compared to Aβ group (non-directional swimming), rest platform removed): directly swim into the quadrant IV; time spent for searching target quadrant ([2]; FIG. 9, compared to Aβ group, target quadrant IV): the Aβ group spend more time to find the target quadrant
